Experiments:
[1] = test system: Vero cells infected with virus particles
[2] = test system: African Swine Fever Virus (ASFV)

Structure (SMILES) | CPE (first test) [1] | CPE (second test) [1] | Cq value for ASFV compared to positive control [2] | Visual scoring of protection against the cytopathic effect of the virus [1] | Solubility in the test solution [1]
CCCCCCCCCC(=O)O [100% C10, capric acid] | 2/4 | 2/4 |  |  | 
CCCCCCCCC(=O)O [100% C9, pelargonic acid] | 2/2 | 2/2 |  |  | 
CCCCCCCC(=O)O [Composition F1, caprylic acid] |  |  | significantly increase the Cq value |  | 
CCCCCCCC(=O)O [100% C8, caprylic acid] | 2/2 | 2/2 |  | scored best | 
CCCCCC(=O)O [100% C6, caproic acid] | 3/3 | 3/3 |  |  | 
CCCCCCCCCCCC(=O)O [100% C12, lauric acid] |  |  |  |  | solubility issue was observed
